Measurements taken from the supplement of paper PMC10307832.

Assays:
Experiment in all cases: relative viability (nuclei count vs DMSO), 5 days (fraction); higher = more cells survive
Decitabine + AZD7762 = compound: Nc1ncn([C@H]2C[C@H](O)[C@@H](CO)O2)c(=O)n1 [Decitabine] + NC(=O)Nc1cc(-c2cccc(F)c2)sc1C(=O)N[C@H]1CCCNC1 [AZD7762] (partner 0.2 µM)
In short: (§1)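 Dosing by pin tool came one day after lung cancer cell lines were seeded in 1536-well plates, using either one drug or a fixed anchor-drug dose plus five library-drug doses (not always all listed) in √10 steps. After 5 days, nuclei were counted on 4× images. Relative viability is treated-well nuclei count divided by vehicle-well nuclei count, and values are medians of duplicate plates.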

[1] = compound: O=C(C[C@H]1NCCC[C@@H]1O)Cn1cnc2cc(Br)c(Cl)cc2c1=O (racemic) [Halofuginone] + CCNC(=O)c1noc(-c2cc(C(C)C)c(O)cc2O)c1-c1ccc(CN2CCOCC2)cc1 [Luminespib] (partner 0.01 µM)
In short: as §1

[2] = compound: O=C(C[C@H]1NCCC[C@@H]1O)Cn1cnc2cc(Br)c(Cl)cc2c1=O (racemic) [Halofuginone] + C[C@@H](Oc1cc(-c2cnn(C3CCNCC3)c2)cnc1N)c1c(Cl)ccc(F)c1Cl [Crizotinib] (partner 1 µM)
In short: as §1

Halofuginone + Dasatinib = compound: O=C(C[C@H]1NCCC[C@@H]1O)Cn1cnc2cc(Br)c(Cl)cc2c1=O (racemic) [Halofuginone] + Cc1nc(Nc2ncc(C(=O)Nc3c(C)cccc3Cl)s2)cc(N2CCN(CCO)CC2)n1 [Dasatinib] (partner 0.075 µM)
In short: as §1

Row | Cell Line | relative viability (Decitabine + AZD7762; first compound 0.04 µM) | relative viability (Decitabine + AZD7762; first compound 0.1265 µM) | relative viability (Decitabine + AZD7762; first compound 0.4 µM) | relative viability (Decitabine + AZD7762; first compound 1.265 µM) | relative viability (Decitabine + AZD7762; first compound 4 µM) | relative viability ([1]; first compound 0.001 µM) | relative viability ([1]; first compound 0.003162 µM) | relative viability ([1]; first compound 0.01 µM) | relative viability ([1]; first compound 0.03162 µM) | relative viability ([1]; first compound 0.1 µM) | relative viability ([2]; first compound 0.001 µM) | relative viability ([2]; first compound 0.003162 µM) | relative viability ([2]; first compound 0.01 µM) | relative viability ([2]; first compound 0.03162 µM) | relative viability ([2]; first compound 0.1 µM) | relative viability (Halofuginone + Dasatinib; first compound 0.001 µM) | relative viability (Halofuginone + Dasatinib; first compound 0.003162 µM) | relative viability (Halofuginone + Dasatinib; first compound 0.01 µM) | relative viability (Halofuginone + Dasatinib; first compound 0.03162 µM) | relative viability (Halofuginone + Dasatinib; first compound 0.1 µM)
1 | NCI-H1975 | 0.451 | 0.451 | 0.441 | 0.465 | 0.403 | 0.24 | 0.215 | 0.272 | 0.241 | 0.183 | 1.12 | 0.91 | 1.01 | 0.628 | 0.184 | 0.375 | 0.324 | 0.348 | 0.231 | 0.117
2 | NCI-H2085 | 0.757 | 0.852 | 0.655 | 0.527 | 0.615 | 0.41 | 0.5 | 0.48 | 0.489 | 0.377 | 0.994 | 0.82 | 0.776 | 0.831 | 0.52 | 0.252 | 0.226 | 0.259 | 0.269 | 0.237
3 | NCI-H3122 | 0.927 | 0.823 | 0.529 | 0.466 | 0.5 | 0.0978 | 0.0825 | 0.0899 | 0.0925 | 0.148 | 0.253 | 0.251 | 0.232 | 0.281 | 0.264 | 0.852 | 0.658 | 0.735 | 0.806 | 0.66
4 | NCI-H1651 | 0.43 | 0.446 | 0.336 | 0.341 | 0.355 | 0.7 | 0.797 | 0.802 | 0.65 | 0.427 | 0.922 | 0.899 | 0.88 | 0.848 | 0.798 | 0.526 | 0.494 | 0.377 | 0.258 | 0.162
5 | NCI-H441 | 0.422 | 0.428 | 0.287 | 0.259 | 0.254 | 0.352 | 0.292 | 0.487 | 0.306 | 0.213 | 0.967 | 1.1 | 0.677 | 0.694 | 0.311 | 0.654 | 0.576 | 0.668 | 0.459 | 0.237
6 | ABC-1 | 0.668 | 0.814 | 0.712 | 0.701 | 0.84 | – | 0.793 | 0.518 | 0.225 | 0.377 | 1.09 | 1.08 | 0.954 | 1.26 | 1.15 | 0.586 | 0.626 | 0.453 | 0.476 | 0.487
7 | NCI-H2126 | 0.874 | 0.938 | 0.577 | 0.713 | 0.591 | 0.901 | 0.92 | 0.928 | 0.914 | 0.675 | 1.02 | 1.03 | 0.998 | 1.02 | 0.987 | 0.661 | 0.663 | 0.635 | 0.562 | 0.405
8 | RERF-LC-KJ | 0.822 | 0.95 | 0.439 | 0.75 | 0.832 | 1.47 | 1.27 | 1.22 | 1.25 | 0.887 | 0.888 | 0.791 | 0.807 | 0.818 | 0.823 | 0.875 | 0.91 | 0.764 | 0.862 | 0.633
